Test results as given in patent publication US20100120715A1, “BETA-LACTAMASE INHIBITORS” (priority 2007, published 2010).
Read-outs that look alike come from different tables or passages of the source.

Key:
[1] = system: K. pneumoniae expressing the Class A ESBL CTX-M-15; assay: microbe, parasite or virus in culture; type: cell-based; conditions: in the presence of fixed 8 μg/mL Ceftazidime
Class A ESBL CTXM-15 = target: T1, Class A ESBL CTXM-15 (Escherichia coli, UniProt Q9EXV5); assay: β-lactamase enzyme inhibition (nitrocefin hydrolysis), CTXM-15; type: biochemical; conditions: purified enzyme; nitrocefin 100 μM, PBS pH 7.0; read-out: CTXM-15 IC50 Range
T1 construct: made in house; host or cells: E. coli BL21(DE3)
T1 sequence (Q9EXV5 entry or part of it): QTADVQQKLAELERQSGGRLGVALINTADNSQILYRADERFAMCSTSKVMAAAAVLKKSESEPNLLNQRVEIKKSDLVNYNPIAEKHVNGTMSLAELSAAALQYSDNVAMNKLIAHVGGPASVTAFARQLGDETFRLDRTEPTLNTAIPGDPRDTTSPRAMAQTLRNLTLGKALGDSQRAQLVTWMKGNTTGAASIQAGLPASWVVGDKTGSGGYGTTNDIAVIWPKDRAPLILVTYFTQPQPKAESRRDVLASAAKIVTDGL
How it was run: (§1)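 Native untagged enzymes were expressed in E. coli BL21(DE3) and purified by cation exchange and gel filtration. Compound series (100–0.005 μM in PBS pH 7.0, before addition of an equal enzyme volume) were preincubated with enzyme 10 min at 37°C. Nitrocefin (100 μM final) hydrolysis was read kinetically at 486 nm for 10 min, and IC50 was taken as 50% reduction of initial rate versus no-inhibitor wells.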

[2] = target: T2, Class A carbapenemase KPC-2 (Klebsiella pneumoniae, UniProt Q9F663); assay: β-lactamase enzyme inhibition (nitrocefin hydrolysis), KPC-2; type: biochemical; conditions: purified enzyme; nitrocefin 100 μM, PBS pH 7.0; read-out: KPC-2 IC50 Range
T2 construct: made in house; host or cells: E. coli BL21(DE3)
T2 sequence (Q9F663 25-293 limits assumed): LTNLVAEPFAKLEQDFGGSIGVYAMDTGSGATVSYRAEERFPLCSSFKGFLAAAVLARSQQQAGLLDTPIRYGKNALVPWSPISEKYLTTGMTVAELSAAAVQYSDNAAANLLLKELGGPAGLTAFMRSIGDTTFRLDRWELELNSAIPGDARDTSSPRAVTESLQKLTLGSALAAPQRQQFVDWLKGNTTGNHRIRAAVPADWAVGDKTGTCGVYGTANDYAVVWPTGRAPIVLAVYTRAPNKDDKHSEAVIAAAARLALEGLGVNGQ
How it was run: as §1

Class A ESBL SHV-5 = target: T3, Class A ESBL SHV-5 (Klebsiella pneumoniae, UniProt P0A3M1); type: biochemical, E. coli; conditions: nitrocefin 100 μM, PBS pH 7.0, read-out: SHV-5 IC50 Range
T3 construct: made in house; host or cells: E. coli BL21(DE3) for purified enzyme; E. coli cells containing SHV-5 for extracts
T3 sequence (P0A3M1 22-286): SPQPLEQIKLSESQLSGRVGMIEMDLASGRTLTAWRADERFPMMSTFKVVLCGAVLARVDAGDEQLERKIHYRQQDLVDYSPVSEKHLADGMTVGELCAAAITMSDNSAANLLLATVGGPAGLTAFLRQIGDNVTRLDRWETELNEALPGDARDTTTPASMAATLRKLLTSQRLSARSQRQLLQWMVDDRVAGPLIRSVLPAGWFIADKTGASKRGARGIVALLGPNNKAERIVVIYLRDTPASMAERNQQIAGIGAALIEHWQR

Class C P99 AmpC = target: T4, Class C P99 AmpC (Enterobacter cloacae, UniProt P05364); type: biochemical; conditions: purified enzyme; nitrocefin 100 μM, PBS pH 7.0; read-out: P99 AmpC IC50 Range
T4 construct: made in house; host or cells: E. coli BL21(DE3)
T4 sequence (P05364 21-381): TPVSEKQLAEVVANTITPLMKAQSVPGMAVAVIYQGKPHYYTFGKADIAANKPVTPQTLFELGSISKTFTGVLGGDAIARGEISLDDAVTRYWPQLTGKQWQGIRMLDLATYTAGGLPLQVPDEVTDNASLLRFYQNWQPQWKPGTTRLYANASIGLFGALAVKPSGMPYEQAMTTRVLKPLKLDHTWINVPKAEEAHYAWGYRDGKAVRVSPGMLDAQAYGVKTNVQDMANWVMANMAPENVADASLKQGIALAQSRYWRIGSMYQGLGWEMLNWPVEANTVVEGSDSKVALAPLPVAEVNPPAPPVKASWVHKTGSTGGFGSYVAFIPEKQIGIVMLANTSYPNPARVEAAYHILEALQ
How it was run: as §1

[3] = system: K. pneumoniae expressing the Class A carbapenemase KPC-2; assay: microbe, parasite or virus in culture; conditions: in the presence of fixed 8 μg/mL Ceftazidime
[4] = system: E. coli expressing the Class A ESBL SHV-5; assay: microbe, parasite or virus in culture; type: cell-based; conditions: in the presence of fixed 8 μg/mL Ceftazidime
From the text: (§2) To determine the ability of test compounds to potentiate the inhibition of the growth of bacterial strains producing beta-lactamase enzymes, classic cell based screening assays were employed. Four bacteria strains producing beta-lactamase enzymes were used: K. pneumoniae expressing the Class A Extended Spectrum Beta-Lactamase (ESBL) CTX-M-15, E. coli expressing the Class A ESBL SHV-5, E. cloacae expressing the Class C P99+, and K. pneumoniae expressing the Class A carbapenemase KPC-2. In order to evaluate the ability of test compounds to inhibit beta-lactamase activity, Applicants used a modification of the broth microdilution assay. The assay was conducted in Cation Adjusted Mueller Hinton Broth (CAMHB, BD # 212322, BD Diagnostic Systems, Sparks, Md.). Bacteria strains were grown for 3-5 hours in CAMBH broth. All four strains were grown in presence of 50 μg/mL ampicillin to ensure resistance is maintained. In the meantime, test compounds were diluted in DMSO to a 0.1 mg/mL stock. The compounds were added to a microtiter plate and were diluted in 2-fold serial dilutions in CAMHB in a final concentration range of 8 μg/mL to 0.015 μg/ml. An overlay of CAMHB containing a cephalosporin was added to the compounds at a final static concentration of 8 μg/ml. […] Each of these compound plates are made in quadruplicate, one for each bacteria strain. In addition to the titration of test compounds the MICs of a panel of cephalosporins is also tested to ensure the strains are behaving consistently from test to test. Once the test compound and cephalosporin are added the plates can be inoculated. Inocula are conducted according to CLSI broth microdilution method. After inoculation the plates are incubated for 16-20 hours at 37° C. then the Minimal Inhibitory Concentration (MIC) of the test compound is determined visually.

[5] = system: E. cloacae expressing the Class C P99+ AmpC; assay: microbe, parasite or virus in culture; type: cell-based; conditions: in the presence of fixed 8 μg/mL Ceftazidime
From the text: as §2

[6] = purified beta-lactamase enzyme (Examples 1 and 31-64)
[7] = cellular extracts of E. coli containing SHV-5 (Examples 2-30)

| Structure (SMILES) | MIC of example compound, K. pneumoniae CTX-M-15 + 8 μg/mL CAZ [1] | IC50 (Class A ESBL CTXM-15) [µM] | IC50 [2] [µM] | IC50 (Class A ESBL SHV-5; [6]) [µM] | IC50 (Class C P99 AmpC) [µM] | MIC of example compound, K. pneumoniae KPC-2 + 8 μg/mL CAZ [3] | MIC of example compound, E. coli SHV-5 + 8 μg/mL CAZ [4] | IC50 (Class A ESBL SHV-5; [7]) [µM] | MIC of example compound, E. cloacae P99 AmpC + 8 μg/mL CAZ [5] |
| --- | --- | --- | --- | --- | --- | --- | --- | --- | --- |
| O=C(Cc1cccs1)N[C@@H](Cc1cccc(C(=O)O)c1O)B(O)O [Example 1, (1R)-1-(2-thiophene-2-yl-acetylamino)-2-(2-hydroxy-3-carboxyphenyl)ethyl-1-boronic acid] | C (C represents an MIC of <1 μg/mL) | < 0.01 | < 0.01 | < 0.01 | < 0.01 | C (C represents an MIC of <1 μg/mL) | C (C represents an MIC of <1 μg/mL) | – | – |
| O=C(Cc1cccs1)N[C@@H](Cc1ccc(C(=O)O)cc1O)B(O)O [Example 2, (1R)-1-(2-thiophene-2-yl-acetylamino)-2-(2-hydroxy-4-carboxyphenyl)ethyl-1-boronic acid] | – | 0.1 to 1 | – | – | 0.1 to 1 | – | – | 0.01 to 0.1 | A (A represents an MIC >8 μg/mL) |
| O=C(O)COc1cccc(CC(=O)N[C@@H](Cc2cccc(C(=O)O)c2O)B(O)O)c1 [Example 7, (1R)-1-[3-(carboxymethoxy)-phenyl]acetylamino-(3-carboxy-2-hydroxy)benzyl-methylboronic acid] | C (C represents an MIC of <1 μg/mL) | < 0.01 | – | – | < 0.01 | C (C represents an MIC of <1 μg/mL) | C (C represents an MIC of <1 μg/mL) | < 0.01 | – |
| O=C(Cc1cc(Br)cs1)N[C@@H](Cc1cccc(C(=O)O)c1O)B(O)O [Example 9, (1R)-1-(2-(4-bromo-thiophen-2-nyl)acetylamino)-2-(2-hydroxy-3-carboxyphenyl)ethyl-1-boronic acid] | C (C represents an MIC of <1 μg/mL) | < 0.01 | 0.01 to 0.1 | – | < 0.01 | C (C represents an MIC of <1 μg/mL) | C (C represents an MIC of <1 μg/mL) | < 0.01 | – |
| O=C(CO)N[C@@H](Cc1cccc(C(=O)O)c1O)B(O)O [Example 19, (1R)-1-Hydroxyacetylamino-1-(3-carboxy-2-hydroxy)benzyl-methyl boronic acid] | C (C represents an MIC of <1 μg/mL) | 0.01 to 0.1 | 0.01 to 0.1 | – | 0.1 to 1 | C (C represents an MIC of <1 μg/mL) | A (A represents an MIC >8 μg/mL) | 0.1 to 1 | – |
| CCCCCC(=O)N[C@@H](Cc1cccc(C(=O)O)c1O)B(O)O [Example 21, (1R)-1-Hexanoylamino-(3-carboxy-2-hydroxy)benzyl-methylboronic acid] | C (C represents an MIC of <1 μg/mL) | < 0.01 | < 0.01 | – | < 0.01 | C (C represents an MIC of <1 μg/mL) | C (C represents an MIC of <1 μg/mL) | < 0.01 | – |
| COc1cccc(C(=O)N[C@@H](Cc2cccc(C(=O)O)c2O)B(O)O)c1 [Example 29, (1R)-1-(3-methoxybenzoylamino)-2-(2-hydroxy-3-carboxyphenyl)ethyl-1-boronic acid] | C (C represents an MIC of <1 μg/mL) | < 0.01 | < 0.01 | – | < 0.01 | C (C represents an MIC of <1 μg/mL) | C (C represents an MIC of <1 μg/mL) | 0.01 to 0.1 | – |
| NCCC(=O)N[C@@H](Cc1cccc(C(=O)O)c1O)B(O)O.O=CO [Example 38, (1R)-1-(3-aminopropanoylamino)-2-(2-hydroxy-3-carboxyphenyl)ethyl-1-boronic acid formate salt] | A (A represents an MIC >8 μg/mL) | 0.1 to 1 | 0.1 to 1 | > 1 | 0.1 to 1 | C (C represents an MIC of <1 μg/mL) | A (A represents an MIC >8 μg/mL) | – | – |
| NCc1cccc(C(=O)N[C@@H](Cc2cccc(C(=O)O)c2O)B(O)O)c1.O=CO [Example 42, (1R)-1-(3-aminomethyl)-benzoylamino-1-(3-carboxy-2-hydroxy)benzyl-methyl boronic acid formate] | – | < 0.01 | 0.01 to 0.1 | 0.1 to 1 | < 0.01 | C (C represents an MIC of <1 μg/mL) | – | – | C (C represents an MIC of <1 μg/mL) |
| O=C(O)c1cccc(C[C@H](NC(=O)c2c(Cl)cccc2Cl)B(O)O)c1O [Example 43, (1R)-1-(2,6-Dichlorobenzoyl)-amino-1-(3-carboxy-2-hydroxy)benzyl-methylboronic acid] | A (A represents an MIC >8 μg/mL) | 0.01 to 0.1 | 0.01 to 0.1 | > 1 | < 0.01 | A (A represents an MIC >8 μg/mL) | A (A represents an MIC >8 μg/mL) | – | – |
| Cn1nc(-c2ccccc2)cc1C(=O)N[C@@H](Cc1cccc(C(=O)O)c1O)B(O)O [Example 44, (1R)-1-(1-methyl-3-phenyl-1H-pyrazole-5-carbonyl-amino)-2-(2-hydroxy-3-carboxyphenyl)ethyl-1-boronic acid] | A (A represents an MIC >8 μg/mL) | < 0.01 | 0.01 to 0.1 | < 0.01 | < 0.01 | – | A (A represents an MIC >8 μg/mL) | – | – |
| Cc1nc(-c2cccc(C(=O)N[C@@H](Cc3cccc(C(=O)O)c3O)B(O)O)c2)no1 [Example 47, (1R)-1-[3-(5-methyl-[1,2,4]oxadiazol-3-yl)-benzoyl]-amino-1-(3-carboxy-2-hydroxy)benzyl-methylboronic acid] | A (A represents an MIC >8 μg/mL) | < 0.01 | < 0.01 | 0.01 to 0.1 | < 0.01 | – | A (A represents an MIC >8 μg/mL) | – | – |
| O=C(Cc1cccnc1)N[C@@H](Cc1cccc(C(=O)O)c1O)B(O)O.O=CO [Example 59, (1R)-1-(3-Pyridylacetylamino)-2-(2-hydroxy-3-carboxyphenyl)ethyl-1-boronic acid formate salt] | C (C represents an MIC of <1 μg/mL) | < 0.01 | < 0.01 | < 0.01 | < 0.01 | C (C represents an MIC of <1 μg/mL) | C (C represents an MIC of <1 μg/mL) | – | – |
| O=C(O)c1cccc(C[C@H](NC(=O)[C@@H]2CCCN2)B(O)O)c1O.O=CO [Example 64, (1R),(2′S)-1-(pyrrolidine-2-carbonylamino)-2-(2-hydroxy-3-carboxyphenyl)ethyl-1-boronic acid formate] | A (A represents an MIC >8 μg/mL) | 0.1 to 1 | 0.1 to 1 | > 1 | 0.01 to 0.1 | C (C represents an MIC of <1 μg/mL) | A (A represents an MIC >8 μg/mL) | – | – |
